# Molecular target: T1, NcAA9C (Neurospora crassa, UniProt Q7SHI8)
# T1 construct: gene gh61-3; copper-saturated
# T1 sequence (Q7SHI8 17-359): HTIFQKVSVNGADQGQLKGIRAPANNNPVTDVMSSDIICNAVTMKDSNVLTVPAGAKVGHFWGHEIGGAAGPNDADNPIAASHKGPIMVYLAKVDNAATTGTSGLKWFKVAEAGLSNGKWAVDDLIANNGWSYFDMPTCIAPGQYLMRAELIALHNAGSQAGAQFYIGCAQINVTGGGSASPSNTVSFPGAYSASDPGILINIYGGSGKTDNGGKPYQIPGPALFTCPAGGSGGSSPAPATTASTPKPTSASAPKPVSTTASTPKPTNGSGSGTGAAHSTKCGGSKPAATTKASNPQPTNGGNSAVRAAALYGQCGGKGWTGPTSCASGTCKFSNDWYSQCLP
# Assay: HPAEC-PAD of cellotriose product
# Format: biochemical
# Conditions: 1 uM enzyme, 100 uM ascorbate, 100 uM H2O2, 50 mM MOPS pH 7.0, 30 C
smiles,measurement,value
OC[C@H]1O[C@@H](O[C@H]2[C@H](O)[C@@H](O)[C@H](O[C@H]3[C@H](O)[C@@H](O)[C@H](O[C@H]4[C@H](O)[C@@H](O)[C@H](O[C@H]5[C@H](O)[C@@H](O)C(O)O[C@@H]5CO)O[C@@H]4CO)O[C@@H]3CO)O[C@@H]2CO)[C@H](O)[C@@H](O)[C@@H]1O (stereo partly shown) [cellopentaose],HPAEC-PAD of cellotriose product,"conversion of small, soluble and easily diffusible cellopentaose by NcAA9C"
